Experimental data published in PMC11459959, “Discovery of new acetamide derivatives of 5-indole-1,3,4-oxadiazol-2-thiol as inhibitors of HIV-1 Tat-mediated viral transcription” (Antimicrobial Agents and Chemotherapy, 2024).
Where two headings read alike, the source gives them in different places.

Legend:
Format in all cases: cell-based
[1] = system: HIV-1NL4-3 IRES-eGFP-nef+; assay: eGFP-encoding HIV-1 infection of TZM-bl cells; details: 9, 10, 13 1.5 μM, 20, 21, 22 4 μM, seliciclib 10 µM, triptolide 5 nM, DTG 2 nM, EFV 2 nM, 2 days
[2] = Cell viability of TZM-bl cells (PrestoBlue); details: human
[3] = system: general cellular transcription/translation (R-Luc); assay: Dual-reporter assay, R-Luc in bl-DTR cells; details: doxycycline, 24 h
Experimental: Fig 1 (A) (Top panel) Schematic representation of the primary compound screening using a dual-reporter system. […] (B). […] (Top graphs) bl-DTR cells (1 × 10^4) were treated with twofold serial dilutions of each compound before doxycycline (Dox) addition (final concentration, 50 ng/mL). After 24 h of treatment, the activities of firefly luciferase (F-Luc, red line) and Renilla luciferase (R-Luc, blue line) were determined using the Dual-Glo Luciferase assay system. (Bottom graphs) TZM-bl cells were treated with each indicated compound and subsequently infected with the HIV-1NL4-3 strain at a multiplicity of infection (MOI) of 1. At 48 h after infection, the viral infectivity (purple line) and cell viability (green line) were determined using the Bright-Glo luciferase assay kit and the PrestoBlue Cell Viability Reagent, respectively. […] (C). […] The targeted moieties for the SAR study are marked with dotted-circle lines.
(§1) The Tzm-bl-derived dual Tat reporter; TZM-bl/Tat/Rluc (bl-DTR) cells were established from TZM-bl cells using two Dox-inducible lentiviral expression cassettes cloned with Flag-tagged Tat86 and the R-Luc gene, as described in our previous study ([11]). TZM-bl, A3.01, J1.1, and J-Lat 6.3 cells as well as the HIV-1 molecular clone pNL4-3, pNL(AD8), ARV-resistant HIV-1 strains, and HIV-1NL43-IRES-eGFP (pBR43IeG-nef^+, gifted by Dr. Frank Kirchhoff) ([52]) were provided by the National Institute of Health HIV Reagent Program (NIH, Bethesda, MD, USA). HeLa (CCL-2) and 293T (CRL-3216) cell lines were purchased from the American Type Culture Collection (ATCC, Manassas, VA, USA). The bl-DTR, TZM-bl, HeLa, and 293T cells were cultured in Dulbecco’s modified Eagle’s medium supplemented with 1% penicillin–streptomycin and 10% (vol/vol) heat-inactivated fetal bovine serum (all from Gibco-BRL, Gaithersburg, MD, USA), and 1 µg/mL of puromycin and 200 µg/mL of zeocin were additionally supplemented for the bl-DTR cells. PBMCs were purchased from AllCells (Alameda, CA, USA) and cultured as previously described ([12]). The information on ARV-resistant HIV-1 strains was described in previous reports as follows: NNRTI-resistant 12241 and 12243 ([53]); NRTI-resistant 7396, 7406, and 7407 ([54]); INSTI-resistant 11847 and 11849 ([55], [56]); and PI-resistant 11800 and 11803 ([57]). Each molecular HIV-1 clone was transfected to 293T cells, as previously described ([58]), to obtain infectious HIV-1 particles. Virus-containing cell culture supernatants were collected 3 days after transfection, and filtered through a 0.45-µm membrane filter (Millipore Sigma, Burlington, MA, USA) to remove cell debris. The viral titration was performed as described previously ([59]) with some minor modifications. In brief, 1 × 10^4 TZM-bl cells seeded in 96-well plates were infected with 200 µL of virus-containing medium diluted serially twofold. The incubation was for 2 days and the experiment was performed in triplicate; the infection time minimized the virus spread ([59]). The titration of the infectious viral particles was performed with a ß-Gal staining assay using the ßeta-Galactosidase Staining Kit (Mirus Bio, Madison, WI, USA) following the manufacturer’s protocols. In brief, the infected cells were washed with phosphate-buffered saline (PBS) and fixed using a Cell Fixative Working solution. The cells were washed with PBS and stained using the Cell Staining Working Solution containing X-gal. The infected blue-colored cells were counted under a microscope (100× magnification). The infectious virus titer was determined as a mean value of blue-colored cells count × dilution factor and used for determining the multiplicity of infection (MOI) in each infection experiment.

[4] = system: INSTI-resistant HIV-1 strain 11847; assay: microbe, parasite or virus in culture; details: Human immunodeficiency virus 1, TZM-bl
Experimental: (§2) Fig 7 (A–C) TZM-bl cells (1 × 10^4 cells/well) cultured in a 96-well plate were treated with fivefold serial dilutions of the indicated compound or ARV for 1 h before infection with the HIV-1NL4-3 or ARV-resistant HIV-1 strains at an MOI of 1, respectively. At 48 h after infection, the EC50 values were determined using an F-Luc activity. The symbols represent the fold-change values of EC50 against each mutant virus relative to the wild-type (WT) virus. (D) PBMCs (5 × 10^4 cells/well) were infected with the HIV-1NL4-3 and PIs-resistant HIV-1 strain at an MOI of 0.1, respectively. Subsequently, the PBMCs were treated with 10-fold serial dilutions of the indicated compounds or PI. At 3 days after infection, the EC50 values on the viral replication were determined using a p24 […] assay kit. (E) The inhibitory kinetics for the WT and ARV-resistant viruses. TZM-bl cells infected with WT or ARV-resistant viruses were cultured upon fivefold serial dilutions of each compound for 2 days and the infectivity was determined using an F-Luc activity.
as §1

[5] = system: INSTI-resistant HIV-1 strain 11849; assay: microbe, parasite or virus in culture; details: Human immunodeficiency virus 1, TZM-bl
Experimental: as §2, §1

[6] = system: NNRTI-resistant HIV-1 strain 12241; assay: microbe, parasite or virus in culture; details: Human immunodeficiency virus 1, TZM-bl
Experimental: as §2, §1

[7] = system: NNRTI-resistant HIV-1 strain 12243; assay: microbe, parasite or virus in culture; details: Human immunodeficiency virus 1, TZM-bl
Experimental: as §2, §1

| Compound | inhibition of viral-expressed eGFP signal [1] | CC50 at 48 h ([2]; TZM-bl cells, absence of HIV-1 infection, mean ± SD, read-out: CC50) [nM] | Relative R-Luc activity at IC50 of F-Luc [3] | EC50 [4] [nM] | EC50 [5] [nM] | CC50 at 48 h [2] [nM] | EC50 [6] [nM] | EC50 [7] [nM] |
| --- | --- | --- | --- | --- | --- | --- | --- | --- |
| CC(C)[C@]12O[C@H]1[C@@H]1O[C@]13[C@]1(O[C@H]1C[C@H]1C4=C(CC[C@@]13C)C(=O)OC4)[C@@H]2O [triptolide, reference compound] | remarkably inhibited | 20 | >100 | – | – | – | – | – |
| C[C@@H]1CCO[C@H]2Cn3cc(C(=O)NCc4ccc(F)cc4F)c(=O)c(O)c3C(=O)N12 [DTG, dolutegravir, reference compound] | remarkably inhibited | – | – | 10 ± 10 | 10 | – | – | – |
| Cc1[nH]c2ccc(-c3nnc(SCC(=O)N4CCCC4)o3)cc2c1C [Compound 13, 2-((5-(2,3-Dimethyl-1H-indol-5-yl)-1,3,4-oxadiazol-2-yl)thio)-1-(pyrrolidin-1-yl)ethan-1-one] | remarkably inhibited | – | >100 | 140 ± 10 | 230 ± 20 | 47100 ± 7720 | 200 | 180 ± 10 |
| O=C1Nc2ccc(Cl)cc2[C@@](C#CC2CC2)(C(F)(F)F)O1 [EFV, efavirenz, reference compound] | remarkably inhibited | – | – | – | – | – | 4360 ± 80 | 15500 ± 3390 |
| Cc1[nH]c2ccc(-c3nnc(SCC(=O)N4CCCCC4)o3)cc2c1C [Compound 9, 2-((5-(2,3-Dimethyl-1H-indol-5-yl)-1,3,4-oxadiazol-2-yl)thio)-1-(piperidin-1-yl)ethan-1-one] | remarkably inhibited | – | >100 | 70 | 80 ± 20 | 63200 ± 5940 | 70 | 60 |
